Reference: patent US9169496B2, “Method for the enzymatic production of butadiene” (Scientist of Fortune, S.A., priority 2011, dated 2015)

Test system: 4-methyl-5-(2-hydroxyethyl)thiazole kinase from E. coli
Assay: Kinetic parameters of crotyl alcohol phosphorylation (spectrophotometric assay of Example 2)
Assay type: biochemical
Conditions: crotyl alcohol phosphorylation by purified E. coli kinase
Experimental: The release of ADP that is associated with crotyl alcohol phosphorylation was quantified using the pyruvate kinase/lactate dehydrogenase coupled assay (FIG. 5). The purified 4-methyl-5-(2-hydroxyethyl)thiazole kinases from Escherichia coli (SEQ ID NO:2), Bacillus subtilis (SEQ ID NO:1), Rhizobium leguminosarum (SEQ ID NO:3) were evaluated for their ability to phosphorylate crotyl alcohol releasing ADP. The studied enzymatic reaction was carried out under the following conditions at 37° C.: • 50 mM Tris-HCl pH 7.5 • 10 mM MgCl2 • 100 mM KCl • 5 mM ATP • 0.4 mM NADH • 1 mM Phosphoenolpyruvate • 3 U/ml Lactate dehydrogenase • 1.5 U/ml Pyruvate kinase • 50 mM crotyl alcohol, mixture cis and trans • The pH was adjusted to 7.5
Each assay was started by addition of a particular enzyme at a concentration 0.05 mg/ml and the disappearance of NADH was monitored by following the absorbance at 340 nm.
Kinetic parameters of crotyl alcohol phosphorylation were determined using the spectrophotometric assay described in Example 2.

SMILES	Km [mM]
C/C=C\CO [Cis crotyl alcohol]	13.6
C/C=C/CO [Trans crotyl alcohol]	30
